The values that follow come from patent publication US5110816A, “3-[2-(4-arylpiperazin-1-yl)ethoxy]-p-cymene, the method of preparing and composition thereof” (Institut de Recherches Chimiques et Biologiques Appliquees …, priority 1988, dated 1992).

A short description of data set [1]: Acute toxicity in mice, single oral dose. The note with it: mouse, in vivo, p.o., 14-day observation. Here is the method:
The products were administered orally to mice in a single dose. After a 14-day observation period, the mortality was recorded.
The results are expressed in the form of the 50% lethal dose (LD50) in mg.kg^-1.

Data set [2] concerns postsynaptic alpha-adrenergic receptors. The experiment in a line: Alpha-blocking activity on isolated rabbit ureter. The data set is classed as cell-based. The note with it: norepinephrine contraction halved, printed in Table II with asterisk. The source says: 3. Determination of the Alpha-Blocking Activity on Isolated Rabbit Ureter
Stimulation of the postsynaptic alpha-adrenergic receptors by norepinephrine causes contraction of the isolated rabbit ureter.
The aim is to find the product concentration in whose presence the contracting effect of a given norepinephrine concentration is halved by comparison with the contraction induced before the addition of said product.
The logarithm of this concentration, with its sign changed, represents the pD'2 value.

Data set [3] has as its system toxicity of norepinephrine. The experiment in a line: Adrenolytic activity in vivo in rats (protection against norepinephrine lethality). As to the method:
4. Determination of the Adrenolytic Activity "In Vivo" in Rats
The intravenous injection of norepinephrine (0.4 mg.kg^-1) in wake rats causes the death of 100 percent of the animals. The prior administration of a substance with an alpha-blocking property makes it possible to reduce this toxicity.
The products claimed were administered orally 30 minutes before the intravenous injection of norepinephrine.
These are expressed in the form of the 50% effective dose (ED50), i.e. the dose, in mg.kg^-1, which protects 50 percent of the animals.

Another data set has as its system arterial pressure. The experiment in a line: Norepinephrine-induced arterial hyperpressure in anesthetized rabbits. The data set is classed as in vivo. The note with it: Oryctolagus cuniculus, iv, norepinephrine i.v., 50% inhibition of increase in arterial pressure, read-out: Arterial pressure ID50. Here is the method:
(§1) 5. Activity on Ureteral Hyperpressure in Rabbits
(§2) An increase in the arterial pressure and the ureteral pressure is induced in anesthetized rabbits by an intravenous injection of norepinephrine. These hyperpressures can be inhibited by the prior administration of molecules with alpha-blocking potential.
The efficacy is assessed by the 50% inhibitory dose (ID50), i.e. the dose which inhibits the increases in arterial and ureteral pressures by 50 percent.

The test system of a further data set is ureteral pressure. In words: Norepinephrine-induced ureteral hyperpressure in anesthetized rabbits. The data set is classed as in vivo.
Description: as §1, §2

By LD50 is commonly meant the dose expected to kill half of the subjects tested. Consider `Cc1ccc(C(C)C)c(OCCN2CCN(c3ccccc3OC(C)C)CC2)c1` [B.1399], for which the 50% lethal dose (LD50) at 336 h in data set [1] is ~500 mg/kg. Also, the “pD'2” value in data set [2] is on record as 6.69. The ED50 in data set [3] (Rattus norvegicus, oral 30 minutes before i.v. norepinephrine 0.4 mg.kg^-1, dose protecting 50 percent of animals) turned out to be 0.78 mg/kg; in the data set on arterial pressure, 1.64 mg/kg; with ureteral pressure (Oryctolagus cuniculus, iv, norepinephrine i.v., 50% inhibition of increase in ureteral pressure, read-out: Ureteral pressure ID50), 0.18 mg/kg. Further, the “protection against the toxicity of norepinephrine (in words)” value in data set [3] (oral) is “excellent protection against the toxicity of norepinephrine”. Moreover, in the data set with ureteral pressure (I.V.), the “ratio of ID50 arterial pressure to ID50 ureteral pressure” value amounted to 9.1.
